The values below come from paper PMC11682119 (Scientific Reports, 2024).

For the test, the target named is T1, hALDH2 (Homo sapiens, UniProt P05091).
T1 sequence (P05091 18-517): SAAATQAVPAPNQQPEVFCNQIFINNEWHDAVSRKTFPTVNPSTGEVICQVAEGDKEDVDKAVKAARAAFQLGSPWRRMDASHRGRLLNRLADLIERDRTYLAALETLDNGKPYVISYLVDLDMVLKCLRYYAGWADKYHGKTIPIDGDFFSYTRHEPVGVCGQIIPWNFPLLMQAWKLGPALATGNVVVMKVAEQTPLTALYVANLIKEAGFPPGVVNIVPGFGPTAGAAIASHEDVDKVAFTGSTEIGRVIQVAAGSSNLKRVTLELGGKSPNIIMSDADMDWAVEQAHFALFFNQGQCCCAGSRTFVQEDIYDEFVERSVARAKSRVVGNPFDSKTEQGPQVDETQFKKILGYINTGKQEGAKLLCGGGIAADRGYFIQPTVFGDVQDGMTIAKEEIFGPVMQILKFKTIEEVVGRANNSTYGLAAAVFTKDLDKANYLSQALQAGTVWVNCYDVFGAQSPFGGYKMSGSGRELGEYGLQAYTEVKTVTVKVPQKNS
It is filed as biochemical.

As to `CN(C)C(=S)SSC(=S)N(C)C` [thiram], the IC50 was 1600 nM.
